According to patent US20250109132A1, “COMPOUNDS AND METHODS FOR TREATING FRIEDREICH'S ATAXIA” (Design Therapeutics, Inc., priority 2022, published 2025):

test system: human FXN; assay: EC50 Assay: FXN mRNA expression by qRT-PCR in GM15850 cells; assay type: cell-based; conditions: GM15850 cell suspension, 48 hrs incubation, hFXN expression normalized to hGAPDH, 5-point 3-fold dose response, read-out: EC50 WT (nM, 48 hr)
Protocol: Cell culture: Cells were cultured in RPMI1640 medium+15% FBS. Cells were maintained at a density between […]. Cells were centrifuged, resuspended in fresh medium, counted and plated at 150,000 cells per well in 100 μL in a non-coated, flat bottom tissue culture plate.
Compound treatment: 10 mM stock solution of FA GeneTAC was diluted 1:10 in DMSO followed by a 1:100 dilution in growth medium. Working solution was then further diluted to 1OX desired final concentration of 150 nM. Compound was then diluted at a 1:3 ratio into growth medium containing 0.01% DMSO. 5-point, 3-fold dose response curve was generated. 11 μL of 10× compound was added to wells containing 100 μL cell suspension of GM15850. 11 μL growth medium containing 0.01% DMSO was added to all wells not treated with FA GeneTAC. Cells were allowed to incubate for 48 hrs prior to cell lysis using guanidine isothiocyanate solution.
RNA isolation: Total RNA was isolated and purified in 384-well column filter plates using chaotropic salt.
qRT-PCR: qRT-PCR reactions were assembled using AgPath-ID reagents (Thermo Fisher) using 6 μL mastermix and 4 μL RNA. qRT-PCR TaqMan primer probe sets against human FXN (Assay ID Hs01075496 ml) and human GAPDH (Assay ID Hs00266705_g1) were used to measure the intended targets. qRT-PCR was run on the ThermoFisher QuantStudio 6 PRO instrument using the manufacturer's recommended cycling conditions.
Data analysis: qPCR data was analyzed using Thermo Fisher Design and Analysis software. Data was exported to Excel and hFXN expression was normalized to hGAPDH expression
A<100 nM; B is 100 nM to 500 nM; C>500 nM.

Question: With `Cc1cc(F)cc(C)c1Oc1ccc(C(C)(C)O)cc1-c1cn(C)c(=O)c2[nH]c(C(=O)NCc3cn(CCOCCOCCOCCOCCOCCOCCOCCOCCNC(=O)CCNC(=O)c4nc(NC(=O)CCNC(=O)c5cc(NC(=O)c6nc(NC(=O)CCNC(=O)c7cc(NC(=O)c8nccn8C)cn7C)cn6C)cn5C)cn4C)nn3)cc12` [Compound 5] as the molecule, how does the EC50 read?
Answer: < 100 nM

Question: `Cc1cc(F)cc(C)c1Oc1ccc(C(C)(C)O)cc1-c1cn(C)c(=O)c2[nH]c(C(=O)Nc3ccc(OCCOCCOCCOCCOCCOCCOCCOCCOCCNC(=O)CCNC(=O)CCNC(=O)c4nc(NC(=O)CCNC(=O)c5cc(NC(=O)c6nc(NC(=O)CCNC(=O)c7cc(NC(=O)c8nccn8C)cn7C)cn6C)cn5C)cn4C)cc3)cc12` [Compound 10] was tested. Which EC50 did it give?
Answer: < 100 nM

Question: For `CCNC(=O)c1cc2c(-c3cc(C(C)(C)O)ccc3Oc3c(C)cc(OCCOCCOCCOCCOCCOCCOCCOCCOCCNC(=O)CCNC(=O)c4nc(NC(=O)CCNC(=O)c5cc(NC(=O)c6nc(NC(=O)CCNC(=O)c7cc(NC(=O)c8nccn8C)cn7C)cn6C)cn5C)cn4C)cc3C)cn(C)c(=O)c2[nH]1` [Compound 17], which EC50 is on record?
Answer: < 100 nM

Question: For `Cc1cc(F)cc(C)c1Oc1ccc(C(C)(C)O)cc1-c1cn(C)c(=O)c2[nH]c(C(=O)Nc3ccc(OCCOCCOCCOCCOCCOCCOCCOCCOCCNC(=O)CCNC(=O)c4nc(NC(=O)CCNC(=O)c5cc(NC(=O)c6nc(NC(=O)CCNC(=O)c7cc(NC(=O)c8nccn8C)cn7C)cn6C)cn5C)cn4C)c(O)c3)cc12` [Compound 12], which EC50 is on record?
Answer: < 100 nM

Question: For `Cc1cc(F)cc(C)c1Oc1ccc(S(C)(=O)=O)cc1-c1cn(C)c(=O)c2[nH]c(C(=O)Nc3ccc(OCCOCCOCCOCCOCCOCCOCCOCCOCCNC(=O)CCNC(=O)c4nc(NC(=O)CCNC(=O)c5cc(NC(=O)c6nc(NC(=O)CCNC(=O)c7cc(NC(=O)c8nccn8C)cn7C)cn6C)cn5C)cn4C)cc3)cc12` [Compound 2], which EC50 is on record?
Answer: < 100 nM

Question: Which EC50 does the source give for `Cc1cc(F)cc(C)c1Oc1ccc(C(C)(C)O)cc1-c1cn(C)c(=O)c2[nH]c(C(=O)NCc3ccc(OCCOCCOCCOCCOCCOCCOCCOCCOCCNC(=O)CCNC(=O)c4nc(NC(=O)CCNC(=O)c5cc(NC(=O)c6nc(NC(=O)CCNC(=O)c7cc(NC(=O)c8nccn8C)cn7C)cn6C)cn5C)cn4C)cc3)cc12` [Compound 6] here?
Answer: < 100 nM

Question: With `COCCOCCOCCOCCOCCOCCOc1cc(NC(=O)c2cc3c(-c4cc(C(C)(C)O)ccc4Oc4c(C)cc(F)cc4C)cn(C)c(=O)c3[nH]2)ccc1OCCOCCOCCOCCOCCOCCOCCOCCOCCNC(=O)CCNC(=O)c1nc(NC(=O)CCNC(=O)c2cc(NC(=O)c3nc(NC(=O)CCNC(=O)c4cc(NC(=O)c5nccn5C)cn4C)cn3C)cn2C)cn1C` [Compound 4] as the molecule, how does the EC50 read?
Answer: < 100 nM

Question: Which EC50 does the source give for `Cc1cc(F)cc(C)c1Oc1ccc(C(C)(C)O)cc1-c1cn(C)c(=O)c2[nH]c(C(=O)Nc3ccc(OCCOCCOCCOCCOCCOCCOCCOCCOCCNC(=O)c4nc(NC(=O)CCNC(=O)c5cc(NC(=O)c6nc(NC(=O)CCNC(=O)c7cc(NC(=O)c8nccn8C)c[nH]7)cn6C)c[nH]5)cn4C)cc3)cc12` [Compound 9] here?
Answer: < 100 nM

Question: How did the EC50 turn out when `COC(C)(C)c1ccc(Oc2c(C)cc(F)cc2C)c(-c2cn(C)c(=O)c3[nH]c(C(=O)Nc4ccc(OCCOCCOCCOCCOCCOCCOCCOCCOCCNC(=O)CCNC(=O)c5nc(NC(=O)CCNC(=O)c6cc(NC(=O)c7nc(NC(=O)CCNC(=O)c8cc(NC(=O)c9nccn9C)cn8C)cn7C)cn6C)cn5C)cc4)cc23)c1` [Compound 1] was run?
Answer: < 100 nM

Question: For `CCS(=O)(=O)c1ccc(Oc2c(C)cc(F)cc2C)c(-c2cn(C)c(=O)c3[nH]c(C(=O)Nc4ccc(OCCOCCOCCOCCOCCOCCOCCOCCOCCNC(=O)CCNC(=O)c5nc(NC(=O)CCNC(=O)c6cc(NC(=O)c7nc(NC(=O)CCNC(=O)c8cc(NC(=O)c9nccn9C)cn8C)cn7C)cn6C)cn5C)cc4)cc23)c1` [Compound 3], which EC50 is on record?
Answer: < 100 nM

Question: Which EC50 does the source give for `Cc1cc(F)cc(C)c1Oc1ccc(C(C)(C)O)cc1-c1cn(C)c(=O)c2[nH]c(C(=O)Nc3ccc(OCCOCCOCCOCCOCCOCCNC(=O)CCNC(=O)c4nc(NC(=O)CCNC(=O)c5cc(NC(=O)c6nc(NC(=O)CCNC(=O)c7cc(NC(=O)c8nccn8C)cn7C)cn6C)cn5C)cn4C)cc3)cc12` [Compound 11] here?
Answer: < 100 nM

Question: `Cc1cc(F)cc(C)c1Oc1ccc(C(C)(C)O)cc1-c1cn(C)c(=O)c2[nH]c(C(=O)Nc3ccc(OCCOCCOCCOCCOCCOCCOCCOCCOCCNC(=O)c4nc(NC(=O)CCNC(=O)c5cc(NC(=O)c6nc(NC(=O)CCNC(=O)c7cc(NC(=O)c8nccn8C)cn7C)cn6C)cn5C)cn4C)cc3)cc12` [Compound 7] was tested. Which EC50 did it give?
Answer: < 100 nM

Question: Which EC50 does the source give for `Cc1cc(F)cc(C)c1Oc1ccc(C(C)(C)O)cc1-c1cn(C)c(=O)c2[nH]c(C(=O)Nc3ccc(OCCOCCOCCOCCOCCOCCOCCOCCOCCNC(=O)CCNC(=O)c4nc(NC(=O)CCNC(=O)c5cc(NC(=O)c6nc(NC(=O)CCNC(=O)c7cc(NC(=O)c8nccn8C)cn7C)cn6C)cn5C)cn4C)cc3)cc12` [Compound 15] here?
Answer: < 100 nM
